Assay: Lipophilicity, log D of compound at pH 7.4
Settings: buffer

CO[C@H]1/C(F)=C/C[C@H](C)[C@@H](C)S(=O)(=O)NC(=O)c2ccc3c(c2)N(C[C@@H]2CCO[C@H]21)C[C@@]1(CCCc2cc(Cl)ccc21)CO3
logD: 3

Reference: ChEMBL document CHEMBL5584342, “The Missing Link(er): A Roadmap to Macrocyclization in Drug Discovery” (J Med Chem, 2024)
